Non-standard residues stand in square brackets, D forms with d. methoxy‑PEG 20 kDa = linear 20 kDa methoxy-PEG conjugated through D-Cys sulfur
What was measured:
CD1 mice = assay: Acute toxicity testing (up and down procedure); assay type: in vivo; conditions: six CD1 mice, intravenous, 17.5 mg/kg to 1750 mg/kg, up to six days
Experimental: FIG. 10. No toxic effects in 6 mice treated with XYZ. Acute toxicity testing was performed in CD1 mice with different doses of XYZ up to six days after treatment. After one day of fasting, six mice were injected intravenously (28 G needle) through the tail vein with a total dose of 17.5, 175, 550 or 1750 mg/kg/mouse of XYZ in a physiological solution. 50 gr of food were available two hours later. The health status (coat and appearance) of mice was observed from the first day after treatment. (a) Mice were weighed prior to XYZ injection and then every day until the sixth day. The amount of ingested food (b) and drinking water (c) were measured.
Intravenous injections were performed in six CD1 mice (Charles River, Calco (MI) Italy) tails for administration from 17.5 mg/kg to 1750 mg/kg XYZ (FIG. 10).

[1] = test system: WM115 CD271 silenced (siRNA) melanoma cell line; assay: MTT assay in CD271-silenced (siRNA) cells; assay type: cell-based, human; conditions: WM115 transfected with CD271 siRNA
Excerpt: FIG. 6. The peptide reduces melanoma cell viability through CD271. WM115 melanoma cell line was transiently transfected with CD271 siRNA, as shwon by western blotting. MTT assay was used to measure cell viability after treatment with the peptide (XYZ) or the diluent in siRNA and scramble cells. SKme128 melanoma cell line was transiently transfected with CD271 mRNA, as shown by western blotting. MTT assay was used to measure cell viability after treatment with the peptide (XYZ) or the diluent in siRNA and scramble cells. Student's t-test was used for comparison of the means.
(§1) 5×10^3 cells/well were seeded in 96-well culture plates. At different time points, cells were incubated with 0.5% MTT (3-(4,5-dimethylthiazol-2-yl)-2,5-diphenyltetrazolium bromide) for 4 h at 37° C. and then dissolved with 100 μl Isopropanol with 0.04N HCl. The plate was read at 560 nm with a reference filter of 650 nm. Results are expressed as viability percentage, as compared to control.
Melanoma cells were plated in 2D for 24 h in antibiotic free medium. WM115 cell line was then transfected with scrambled or CD271 siRNA (50 nM and 100 nM, respectively) (Dharmacon Inc, Lafayette, Colo., USA) in antibiotic/FBS free medium supplemented with 0.1% BSA and 48 h later cells were seeded for MTT assay or lysed for western blotting.

CD271 = target: T1, CD271 (Homo sapiens, UniProt P08138); assay: Immunoprecipitation of melanoma cell lysates with the peptide, blotted against CD271; assay type: binding; conditions: protein extracts of WM266-4 and 1205Lu melanoma cell lines
T1 construct: total protein lysates of WM266-4 and Lu1205 melanoma cell lines were immunoprecipitated with the peptide conjugated to sepharose beads; endogenous in cells; host or cells: WM266-4 and 1205Lu melanoma cell lines (ATCC)
T1 sequence (P08138 29-427): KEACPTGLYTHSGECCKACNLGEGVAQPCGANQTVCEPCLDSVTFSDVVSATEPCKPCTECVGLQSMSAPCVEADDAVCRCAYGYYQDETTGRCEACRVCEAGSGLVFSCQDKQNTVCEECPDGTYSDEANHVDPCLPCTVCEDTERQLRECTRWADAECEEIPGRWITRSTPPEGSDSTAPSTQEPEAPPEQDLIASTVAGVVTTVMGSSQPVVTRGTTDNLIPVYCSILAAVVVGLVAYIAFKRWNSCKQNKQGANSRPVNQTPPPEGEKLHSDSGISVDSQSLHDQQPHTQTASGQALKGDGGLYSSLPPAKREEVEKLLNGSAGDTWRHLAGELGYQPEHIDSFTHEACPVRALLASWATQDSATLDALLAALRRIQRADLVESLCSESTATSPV
Experimental: FIG. 1. […] Protein extracts from two melanoma cell lines were immunoprecipitated with the Pegylated form of the peptide (XYZ) and blotted against CD271. The sepharose beads-protein lysates (without CD271) is used as negative control, while no-immunoprecipitated protein lysate from WM266-4 is used as positive control.
1205Lu and WM266-4 melanoma cell lines were treated with or without XYZ. 24 h later cells were harvested with RIPA buffer (10 mM Tris, pH 8.0; 150 mM NaCl; 1% Nonidet P-40, 0.5% deoxycholate; 0.1% SDS) containing protease inhibitors. Nuclei were removed by centrifugation (11,000 rpm for 3 min). Monoclonal antibody anti-p75NTR (Upstate) was bound to sepharose beads lh at 4° C. under rotation. Then, pre-cleared lysates were conjugated to sepharose beads-antibody complex or to sepharose beads alone as negative control, overnight at 4° C. under rotation. Immunocomplexes were washed with Port Buffer (10 mM Tris-HCl, pH 8.5; 150 mM NaCl; 0.1% Renex 30; 0.01% BSA; 2.5% NaN3) six times and with PT Buffer (10 mM Tris-HCl, pH 8.5; 150 mM NaCl; 0.5% Tween 20; 2.5% NaN3) three times. Samples were eluted with 1× Laemnli sample buffer for […] at 90° C. and Western Blotting for p75NTR was performed.
Immunocomplexes were washed with Port Buffer and with PT Buffer, then eluted with Laemnli sample buffer for 5′ at 90° C. […]

[2] = test system: melanoma cell lines (WM115, WM266-4, SKmel28, WM793B, 1205Lu); assay: MTT assay in melanoma cell lines; assay type: cell-based, human
Experimental: as §1
Five melanoma cell lines were used for testing the efficacy of XYZ or its non-PEGylated peptide component: WM115 and WM266-4, which are respectively the primary and metastatic melanoma derived from the same patient and expressing high levels of CD271, and SKme128, a metastatic melanoma cell line expressing low levels of CD271, WM793B, a primary melanoma, and 1205Lu derived from lung metastatic melanoma. The viability of the cell culture is assessed by MTT conversion. MTT solution is applied to the plates and placed into a cell culture incubator for 4 hours. The blue formazan metabolite produced by viable cells is then extracted into isopropanol and absorbance is measured at 570 nm using a spectrophotometer.

Ac-DMet-DLeu-Gly-DIle-DIle-DAla-Gly-DLys-DAsn-DSer-Gly-DCys-NH2 with a linear 20 kDa methoxy-PEG polymer conjugated to the D-Cys residue through the sulfur atom of the latter (Ac-[dM][dL]G[dI][dI][dA]G[dK][dN][dS]G[dC](methoxy‑PEG 20 kDa)-NH2) [XYZ]
acute toxic effect (appearance, weight, water and food intake) (CD1 mice): did not show any acute toxic effect | cell viability (MTT assay) in CD271-silenced cells [1]: fails to reduce cell viability | binding to CD271 (immunoprecipitation, blot against CD271) (CD271): immunoprecipitate with CD271 | cell proliferation (MTT assay), dose dependence ([2]; WM115, WM266-4 and SKmel28, different doses and time points): diminishes cell proliferation, as shown by MTT assay, in a dose-dependent manner | cell proliferation (MTT assay) ([2]; five melanoma cell lines, 48 h and 96 h after treatment, no significant difference between PEGylated and non-PEGylated form): reduce cell proliferation

From patent US20230137491A1, “PEPTIDES AND USES THEREOF” (SINTICA BIOTECH SOCIETÀ A RESPONSABILITÀ LIMITATA …, priority 2020, published 2023)
